Test results from patent US20250144030A1, “OSMOTIC PUMP CONTROLLED-RELEASE TABLET OF INSOLUBLE DRUG AND PREPARATION METHOD THEREFOR” (BEIJING WEHAND-BIO PHARMACEUTICAL CO., LTD, priority 2021, published 2025).
Structures can show the parent of a compound that is named as a salt. Where two headings read alike, the source gives them in different places.

Test: Determination of solubility of Nic drug and solid dispersions
Type: physicochemical
Conditions: for solubility at 2 h: 37 °C, thermodynamic from solid
Procedure: After the drug was dissolved, an equivalent dose of the solid dispersion powder was further added, and oscillated for 2 h. The above operations were repeated until an insoluble solid occurred in the solution.

solubility at 2 h (saturated citric acid solution, aqueous buffer, saturated citric acid solution, read-out: Solubility of Saturated Citric Acid Solution mg/ml (37° C.)) [mg/mL] | solubility at 2 h (water, water, water, read-out: Solubility in Water mg/ml (37° C.)) [mg/mL] | Solubility of Saturated Citric Acid Solution mg/ml (37° C.) (saturated citric acid solution, hydrochloride) [mg/mL] | Solubility in Water mg/ml (37° C.) (water, hydrochloride) [mg/mL] | SMILES
46 | 7.2 |  |  | COC(=O)C1=C(C)NC(C)=C(C(=O)OCCN(C)Cc2ccccc2)C1c1cccc([N+](=O)[O-])c1 (stereo not drawn) [α-Form Nic, nicardipine hydrochloride]
 |  | 50 | 11 | COC(=O)C1=C(C)NC(C)=C(C(=O)OCCN(C)Cc2ccccc2)C1c1cccc([N+](=O)[O-])c1 (stereo not drawn) [β-Form Nic, nicardipine hydrochloride]
